Legend:
MYT1 protein [1] = biological target: T1, MYT1 protein (Homo sapiens (Human), UniProt Q99640); experiment: MYT1 kinase activity inhibition test (ELISA, phosphorylation of Y15 of CDK1); format: biochemical; settings: phosphorylation level of Y15 of CDK1 protein caused by MYT1 protein, 60 minutes
Protocol: The MYT1 kinase activity inhibitory capacity of each compound was evaluated by evaluating the phosphorylation level of Y15 of CDK1 protein caused by MYT1 protein, by ELISA. The kit of CycLex Weel Kinase Assay/Inhibitor Screening Kit Ver. 3 (manufactured by MBL, CY-1172V3) was used. Using Kinase Buffer, 10 μL of 5 nM MYT1 protein (manufactured by Carna Biosciences, Inc.) was prepared. In addition, 30 μL of 83.3 μM of ATP was prepared using Kinase Buffer. In addition, 10 μL of each compound was diluted to each concentration using Kinase Buffer. 30 μL of ATP was added to the plate of the kit, and thereafter, 10 μL of each compound was added thereto. Further, 10 μL of the diluted MYT1 protein solution was added thereto, and then the mixture was mixed, which was allowed to stand at room temperature for 60 minutes. The reaction solution was removed from each well, and each well was washed using Wash Buffer. After Wash Buffer was removed, 100 μL of HRP conjugated Anti-phospho-tyrosine antibody was added to each well, which was allowed to stand at room temperature for 60 minutes. Thereafter, the reaction solution was removed from each well, and each well was washed using Wash Buffer. After Wash Buffer was removed, 100 μL of Substrate Reagent was added to each well, which was allowed to stand at room temperature for 8 minutes. Thereafter, 100 μL of Stop Solution (1 N sulfuric acid) was added to each well according to the manual. Absorbances at 450 nm and 590 nm were measured using Envision (manufactured by PerkinElmer). The phosphorylation level of CDK1 protein was evaluated for each well by subtracting the absorbance at 590 nm from the absorbance at 450 nm. The inhibition rate of each compound added at each concentration was calculated by setting the signal when the compound was not added as 100% and the signal when MYT1 protein was not added as 0%, and the calculation results of IC50 were shown in Table 4.

LU65 = experiment: Cytotoxicity test with pemetrexed upon addition of each example compound (CellTiter-Glo); format: cell-based, human; settings: combination with pemetrexed, LU65 cells, 7 days; maximum value, at the MYT1 inhibitor and pemetrexed concentrations
Protocol: LU65 (received from human tissue bank (JCRB Cell Bank)) was used in the evaluation of the present invention. LU65 is a lung cancer cell line having a truncated deletion mutation of S82* in RB1 gene (see Nature. 2019 May; 569(7757): 503-508. (Non Patent Literature 22)), in which the function of RB1 is decreased. The cell culture was carried out using RPMI-1640 (manufactured by SIGMA) containing 10% FBS (manufactured by SIGMA).
Each pemetrexed (manufactured by Tokyo Kasei Kogyo Co., Ltd.) and each example compound of each concentration were diluted using a DMSO solution, and 0.04 μL of each of series of dilution and DMSO was added to each well of cell culture plate using Echo 555 Liquid Handler (manufactured by Beckman Coulter Inc.). 1000 LU65 cells ([…]) were added to each well, which was cultured at 37° C. in a 5% CO2 incubator for 7 days. Intracellular ATP level which is a cell survival marker was measured and used in the monitoring of cell number. After culturing, 20 μL of CellTiter-Glo (registered trademark) 2.0 (manufactured by Promega) was added to each well, and the emission intensity was measured using Multimode Plate Reader En Vision (registered trademark) Xcite (manufactured by PerkinElmer). The cell survival rate under each condition was calculated by setting the value obtained by subtracting the luminescence of the cell unseeded well from the luminescence of the DMSO-added well as 100%, and calculating the proportion of a value obtained by subtracting the luminescence of the cell unseeded well from the luminescence detected at each well.
In addition, the cytotoxic activity under each condition was calculated by subtracting the survival rate in a combination of pemetrexed of each treatment concentration and each example compound of each treatment concentration, from 100%.

MYT1 protein [2] = biological target: T1, MYT1 protein; experiment: Test for binding to ATP binding site of MYT1 (Kinase Tracer 178 / Eu-Anti-GST antibody TR-FRET); settings: ATP binding site of MYT1, 30 minutes at room temperature

T1 sequence (Q99640 whole entry): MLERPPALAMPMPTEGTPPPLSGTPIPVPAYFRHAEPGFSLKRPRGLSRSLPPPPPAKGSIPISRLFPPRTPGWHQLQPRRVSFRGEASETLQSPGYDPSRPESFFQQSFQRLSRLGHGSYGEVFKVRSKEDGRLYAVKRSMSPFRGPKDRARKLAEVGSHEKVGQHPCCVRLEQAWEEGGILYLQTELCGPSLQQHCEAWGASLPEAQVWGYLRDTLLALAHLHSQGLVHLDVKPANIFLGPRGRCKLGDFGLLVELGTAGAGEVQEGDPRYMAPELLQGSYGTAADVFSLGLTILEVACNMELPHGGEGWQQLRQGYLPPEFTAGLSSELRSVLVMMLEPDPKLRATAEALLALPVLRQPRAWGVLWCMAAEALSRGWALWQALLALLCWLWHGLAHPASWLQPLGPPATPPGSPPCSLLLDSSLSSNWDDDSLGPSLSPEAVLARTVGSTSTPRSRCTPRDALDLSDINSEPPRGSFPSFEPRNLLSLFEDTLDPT

| SMILES | IC50 (MYT1 protein [1]) | Bliss Score (Max) (LU65) | HSA Score (MAX) (LU65) | IC50 (MYT1 protein [2]) |
| --- | --- | --- | --- | --- |
| Nc1c(-c2ccc(Cl)c3[nH]ncc23)c2cc(C3CC3)c3ccccc3c2[nH]c1=O [Compound B37, 3-Amino-4-(7-chloro-1H-indazol-4-yl)-6-cyclopropyl-1H-benzo[h]quinolin-2-one] | 0.75 nM | 31% | 34% | 6 nM |
| Cc1cc2c(-c3c(F)ccc4[nH]ncc34)c(N)c(=O)[nH]c2c2cccnc12 [Compound C155, 3-Amino-4-(5-fluoro-1H-indazol-4-yl)-6-methyl-1H-1,7-phenanthrolin-2-one] | < 4.6 nM | 47% | 61% | 2.3 nM |
| Nc1c(-c2cccc3[nH]ncc23)c2cc(C3CC3)c3ccccc3c2[nH]c1=O [Compound B49, 3-amino-6-cyclopropyl-4-(1H-indazol-4-yl)-1H-benzo[h]quinolin-2-one] | 6.4 nM | 86% | 84% | 6.2 nM |
| Nc1c(-c2ccc(F)c3[nH]ncc23)c2cc(C3CC3)c3cccnc3c2[nH]c1=O [Compound D2, 3-Amino-6-cyclopropyl-4-(7-fluoro-1H-indazol-4-yl)-1H-1,10-phenanthrolin-2-one] | 15 nM | 42% | 51% | 4 nM |
| Nc1c(-c2ccc(F)c3[nH]ncc23)c2cc(F)c3ncccc3c2[nH]c1=O [Compound C64, 3-Amino-6-fluoro-4-(7-fluoro-1H-indazol-4-yl)-1H-1,7-phenanthrolin-2-one] | 0.2 nM | 45% | 54% | 7.4 nM |
| Nc1c(-c2ccc(F)c3[nH]ncc23)c2cc(C3CCN(C4COC4)CC3)c3ncccc3c2[nH]c1=O [Compound C135, 3-Amino-4-(7-fluoro-1H-indazol-4-yl)-6-[1-(oxetan-3-yl)piperidin-4-yl]-1H-1,7-phenanthrolin-2-one] | < 4.6 nM | 48% | 58% | 2.3 nM |
| Nc1c(-c2cccc3[nH]ncc23)c2cc(C3CC3)c3ccc(F)cc3c2[nH]c1=O [Compound B47, 3-Amino-6-cyclopropyl-9-fluoro-4-(1H-indazol-4-yl)-1H-benzo[h]quinolin-2-one] | 1.1 nM | 54% | 62% | 10 nM |
| Nc1c(-c2ccc(F)c3[nH]ncc23)c2cc(Br)c3ncccc3c2[nH]c1=O [Compound C1, 3-amino-6-bromo-4-(7-fluoro-1H-indazol-4-yl)-1H-1,7-phenanthrolin-2-one] | < 0.17 nM | 59% | 71% | 2 nM |
| CC(C)Oc1cc2c(-c3cc(F)c(F)c4[nH]ncc34)c(N)c(=O)[nH]c2c2cccnc12 [Compound C69, 3-Amino-4-(6,7-difluoro-1H-indazol-4-yl)-6-propan-2-yloxy-1H-1,7-phenanthrolin-2-one] | 0.1 nM | 66% | 69% | 2 nM |
| CC(C)Oc1cc2c(-c3ccc(F)c4[nH]ncc34)c(N)c(=O)[nH]c2c2cccnc12 [Compound C13, 3-Amino-4-(7-fluoro-1H-indazol-4-yl)-6-propan-2-yloxy-1H-1,7-phenanthrolin-2-one] | 0.15 nM | 62% | 66% | 1.4 nM |
| Nc1c(-c2cccc3[nH]ncc23)c2ccc3ccccc3c2[nH]c1=O [Compound B46, 3-Amino-4-(1H-indazol-4-yl)-1H-benzo[h]quinolin-2-one] | 6.4 nM | 52% | 65% | 6.3 nM |
| Nc1c(-c2ccc(F)c3[nH]ncc23)c2cc([C@H]3CC[C@@H](O)CC3)c3ncccc3c2[nH]c1=O [Compound C141, 3-Amino-4-(7-fluoro-1H-indazol-4-yl)-6-((1s, 4s)-4-hydroxycyclohexyl)-1H-1,7-phenanthrolin-2-one] | 11 nM | 78% | 72% | 4.9 nM |
| Cn1cc(-c2cc3c(-c4ccc(F)c5[nH]ncc45)c(N)c(=O)[nH]c3c3cccnc23)cn1 [Compound C88, 3-Amino-4-(7-fluoro-1H-indazol-4-yl)-6-(1-methylpyrazol-4-yl)-1H-1,7-phenanthrolin-2-one] | < 0.17 nM | 53% | 61% | 4.4 nM |
| Nc1c(-c2ccc(F)c3[nH]ncc23)c2cc(C3CCC(=O)CC3)c3ncccc3c2[nH]c1=O [Compound C139, 3-Amino-4-(7-fluoro-1H-indazol-4-yl)-6-(4-oxocyclohexyl)-1H-1,7-phenanthrolin-2-one] | 19 nM | 46% | 54% | 3.3 nM |
| Cl.Nc1c(-c2cccc3[nH]ncc23)c2cc(C3CC3)c3cc(F)ccc3c2[nH]c1=O [Compound B48, 3-Amino-6-cyclopropyl-8-fluoro-4-(1H-indazol-4-yl)-1H-benzo[h]quinolin-2-one; hydrochloride] | 2.5 nM | 66% | 70% | 18 nM |
| CC(=O)c1cc2c(-c3ccc(F)c4[nH]ncc34)c(N)c(=O)[nH]c2c2cccnc12 [Compound C200, 6-Acetyl-3-amino-4-(7-fluoro-1H-indazol-4-yl)-1H-1,7-phenanthrolin-2-one] | 7 nM | 44% | 56% | 2.4 nM |
| Nc1c(-c2cccc3[nH]ncc23)c2cc(C3CC3)c3ccncc3c2[nH]c1=O [Compound Q1, 3-Amino-6-cyclopropyl-4-(1H-indazol-4-yl)-1H-1,9-phenanthrolin-2-one] | 0.83 nM | 52% | 58% | 9.3 nM |
| CC(C)(O)C#Cc1cc2c(-c3ccc(F)c4[nH]ncc34)c(N)c(=O)[nH]c2c2cccnc12 [Compound C102, 3-Amino-4-(7-fluoro-1H-indazol-4-yl)-6-(3-hydroxy-3-methylbut-1-inyl)-1H-1,7-phenanthrolin-2-one] | < 4.6 nM | 36% | 49% | 3.8 nM |
| Nc1c(-c2ccc(F)c3[nH]ncc23)c2ccc3ncccc3c2[nH]c1=O [Compound C83, 3-Amino-4-(7-fluoro-1H-indazol-4-yl)-1H-1,7-phenanthrolin-2-one] | 0.2 nM | 54% | 66% | 2.4 nM |
| Cc1cc2c(-c3ccc(F)c4[nH]ncc34)c(N)c(=O)[nH]c2c2cccnc12 [Compound C85, 3-amino-4-(7-fluoro-1H-indazol-4-yl)-6-methyl-1H-1,7-phenanthrolin-2-one] | 0.19 nM | 59% | 58% | 2.5 nM |
| COc1cc2c(-c3ccc(F)c4[nH]ncc34)c(N)c(=O)[nH]c2c2cccnc12 [Compound C4, 3-Amino-4-(7-fluoro-1H-indazol-4-yl)-6-methoxy-1H-1,7-phenanthrolin-2-one] | 0.15 nM | 61% | 62% | 1.3 nM |
| COc1cc2c(-c3cc(F)c(F)c4[nH]ncc34)c(N)c(=O)[nH]c2c2cccnc12 [Compound C65, 3-Amino-4-(6,7-difluoro-1H-indazol-4-yl)-6-methoxy-1H-1,7-phenanthrolin-2-one] | 0.083 nM | 53% | 58% | 3.2 nM |

From patent US20260062412A1, “NITROGEN-CONTAINING HETEROCYCLIC COMPOUND HAVING MYT1 INHIBITORY ACTIVITY” (CHUGAI SEIYAKU KABUSHIKI KAISHA, priority 2023, published 2026)
